Laboratory results reported in patent publication EP4748840A1, “IMIDAZO[1,2-A]PYRIDINE TYPE IRAK DEGRADATION AGENT AND USE THEREOF” (TAINUORUI (TIANJIN) BIOTECHNOLOGY CO., LTD, priority 2023, dated 2025).

Biological target: T1, IRAK4 (Homo sapiens, UniProt Q9NWZ3)
T1 construct: expressed in transfected cells; host or cells: THP1 (THP1-HIBiT-IRAK4 engineered line)
T1 sequence (Q9NWZ3 1-460): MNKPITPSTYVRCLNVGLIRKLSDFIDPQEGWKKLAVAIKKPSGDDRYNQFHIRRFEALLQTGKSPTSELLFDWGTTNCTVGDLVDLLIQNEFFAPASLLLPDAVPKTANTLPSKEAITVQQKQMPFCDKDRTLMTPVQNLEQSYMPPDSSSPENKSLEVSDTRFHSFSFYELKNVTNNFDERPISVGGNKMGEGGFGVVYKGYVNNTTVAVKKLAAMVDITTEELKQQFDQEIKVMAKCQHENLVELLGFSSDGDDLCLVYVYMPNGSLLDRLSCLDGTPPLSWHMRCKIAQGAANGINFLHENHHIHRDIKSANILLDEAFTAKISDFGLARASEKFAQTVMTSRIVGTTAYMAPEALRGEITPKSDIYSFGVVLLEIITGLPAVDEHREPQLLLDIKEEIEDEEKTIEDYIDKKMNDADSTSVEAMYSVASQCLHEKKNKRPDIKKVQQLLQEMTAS
Assay: HiBiT-based intracellular degradation assay of THP1-HIBiT-IRAK4 cells
Assay type: cell-based
Settings: half-maximal degradation concentration of IRAK4 protein, 24 h incubation
Experimental: HiBiT-based intracellular degradation assay of THP1-HIBiT-IRAK4 cells
THP1-HIBiT-IRAK4 cells were cultured in RPMI 1640 medium supplemented with 10% fetal bovine serum (FBS) and 1% penicillin-streptomycin (PS) (37°C and 5% CO2). The THP1-HIBiT-IRAK4 cells were inoculated in a 384-well plate at 5000 cells/40 µL/well. Compound solutions with different concentrations were added at 40 nL/well and incubated for 24 h at 37°C in 5% CO2. HiBiT lysis detection reagents were added to the wells, the plate was incubated for 30 min at room temperature, and luminescence values were read on Envision. [formula]
The DC50 (half-maximal degradation concentration) of each compound was obtained using XLfit software and the following nonlinear fitting equation: Y = bottom + (top−bottom)/(1+10^(∧)((LogDC50−X)×Hillslope)). [formula]
X denotes a log value of the compound concentration.
Y denotes the degradation rate.
Table 1 lists the results of DC50 values of IRAK4 protein degradation. […]

`CC(C)(O)c1cc2nc(C3CCN(CCOCCNc4cccc5c4C(=O)N(C4CCC(=O)NC4=O)C5=O)CC3)cn2cc1NC(=O)c1cccc(C(F)(F)F)n1` (centres unmarked) [Comparative Example 1, N-(2-(1-(2-(2-((2-(2,6-dioxopiperidin-3-yl)-1,3-dioxoisoindolin-4-yl)amino)ethoxy)ethyl)piperidin-4-yl)-7-(2-hydroxypropan-2-yl)imidazo[1,2-a]pyridin-6-yl)-6-(trifluoromethyl)pyridine-2-carboxamide, reference compound] and `CC(C)(O)c1cc2nc(C3CCN(CCCCC#Cc4cccc5c4CN(C4CCC(=O)NC4=O)C5=O)CC3)cn2cc1NC(=O)c1cccc(C(F)(F)F)n1` (centres unmarked) [Comparative Example 2, N-(2-(1-(6-(2-(2,6-dioxopiperidin-3-yl)-1-oxoisoindolin-4-yl)hex-5-yn-1-yl)piperidin-4-yl)-7-(2-hydroxypropan-2-yl)imidazo[1,2-a]pyridin-6-yl)-6-(trifluoromethyl)pyridine-2-carboxamide, reference compound] cannot be ordered by DC50: > 10000 nM for the first, > 10000 nM for the second.

Compared with `CC(C)(O)c1cc2nc(C3CCN(CC(=O)N4CCN(c5ccc6c(c5)C(=O)N(C5CCC(=O)NC5=O)C6=O)CC4)CC3)cn2cc1NC(=O)c1cccc(C(F)(F)F)n1` (centres unmarked) [Example 2, N-(2-(1-(2-(4-(2-(2,6-dioxopiperidin-3-yl)-1,3-dioxoisoindolin-5-yl)piperazin-1-yl)-2-oxoethyl)piperidin-4-yl)-7-(2-hydroxypropan-2-yl)imidazo[1,2-a]pyridin-6-yl)-6-(trifluoromethyl) pyridine-2-carboxamide], `CC(C)(O)c1cc2nc(C3CCN(CCC(=O)N4CCN(c5ccc6c(c5)C(=O)N(C5CCC(=O)NC5=O)C6=O)CC4)CC3)cn2cc1NC(=O)c1cccc(C(F)(F)F)n1` (centres unmarked) [Example 3, N-(2-(1-(3-(4-(2-(2,6-dioxopiperidin-3-yl)-1,3-dioxoisoindolin-5-yl)piperazin-1-yl)-3-oxopropyl)piperidin-4-yl)-7-(2-hydroxypropan-2-yl)imidazo[1,2-a]pyridin-6-yl)-6-(trifluoromethyl)pyridine-2-carboxamide] is 3.1-fold higher in DC50: 4.46 nM for the first, 13.9 nM for the second.

Going from `CC(C)(O)c1cc2nc(C3CCN(CCCC(=O)N4CCN(c5ccc6c(c5)C(=O)N(C5CCC(=O)NC5=O)C6=O)CC4)CC3)cn2cc1NC(=O)c1cccc(C(F)(F)F)n1` (centres unmarked) [Example 4, N-(2-(1-(4-(4-(2-(2,6-dioxopiperidin-3-yl)-1,3-dioxoisoindolin-5-yl)piperazin-1-yl)-4-oxobutyl)piperidin-4-yl)-7-(2-hydroxypropan-2-yl)imidazo[1,2-a]pyridin-6-yl)-6-(trifluoromethyl)pyridine-2-carboxamide] to `CC(C)(O)c1cc2nc(C3CCN(CCN4CCN(c5ccc6c(c5)C(=O)N(C5CCC(=O)NC5=O)C6=O)CC4)CC3)cn2cc1NC(=O)c1cccc(C(F)(F)F)n1` (centres unmarked) [Example 9, N-(2-(1-(2-(4-(2-(2,6-dioxopiperidin-3-yl)-1,3-dioxoisoindolin-5-yl)piperazin-1-yl)ethyl)piperidin-4-yl)-7-(2-hydroxypropan-2-yl)imidazo[1,2-a]pyridin-6-yl)-6-(trifluoromethyl)pyridine-2-carboxamide], the DC50 falls from 5.05 nM to 0.87 nM (5.8-fold).

Compared with `CC(C)(O)c1cc2nc(C3CCN(CC(=O)N4CCC5(CC4)CN(c4ccc6c(c4)C(=O)N(C4CCC(=O)NC4=O)C6=O)C5)CC3)cn2cc1NC(=O)c1cccc(C(F)(F)F)n1` (centres unmarked) [Example 5, N-(2-(1-(2-(2-(2-(2,6-dioxopiperidin-3-yl)-1,3-dioxoisoindolin-5-yl)-2,7-diazaspiro[3.5]nonan-7-yl)-2-oxoethyl)piperidin-4-yl)-7-(2-hydroxypropan-2-yl)imidazo[1,2-a]pyridin-6-yl)-6-(trifluoromethyl)pyridine-2-carboxamide], `CC(C)(O)c1cc2nc(C3CCN(CC(=O)N4CC5(CCN(c6ccc7c(c6)C(=O)N(C6CCC(=O)NC6=O)C7=O)CC5)C4)CC3)cn2cc1NC(=O)c1cccc(C(F)(F)F)n1` (centres unmarked) [Example 6, N-(2-(1-(2-(7-(2-(2,6-dioxopiperidin-3-yl)-1,3-dioxoisoindolin-5-yl)-2,7-diazaspiro[3.5]nonan-2-yl)-2-oxoethyl)piperidin-4-yl)-7-(2-hydroxypropan-2-yl)imidazo[1,2-a]pyridin-6-yl)-6-(trifluoromethyl)pyridine-2-carboxamide] is 2.1-fold higher in DC50: 3.69 nM for the first, 7.83 nM for the second.

First: CC(C)(O)c1cc2nc(C3CCN(CC4CCN(c5ccc6c(c5)CN(C5CCC(=O)NC5=O)C6=O)CC4)CC3)cn2cc1NC(=O)c1cccc(C(F)(F)F)n1 (centres unmarked) [Example 7, N-(2-(1-((1-(2-(2,6-dioxopiperidin-3-yl)-1-oxoisoindolin-5-yl)piperidin-4-yl)methyl)piperidin-4-yl)-7-(2-hydroxypropan-2-yl)imidazo[1,2-a]pyridin-6-yl)-6-(trifluoromethyl)pyridine-2-carboxamide]
Second: CC(C)(O)c1cc2nc(C3CCN(CCN4CCN(c5ccc6c(c5)CN(C5CCC(=O)NC5=O)C6=O)CC4)CC3)cn2cc1NC(=O)c1cccc(C(F)(F)F)n1 (centres unmarked) [Example 10, N-(2-(1-(2-(4-(2-(2,6-dioxopiperidin-3-yl)-1-oxoisoindolin-5-yl)piperazin-1-yl)ethyl)piperidin-4-yl)-7-(2-hydroxypropan-2-yl)imidazo[1,2-a]pyridin-6-yl)-6-(trifluoromethyl)pyridine-2-carboxamide]
The DC50 of the first is 2.7-fold higher: 1.36 nM for the first, 0.51 nM for the second.

First: COc1cc2nc(C3CCN(CC4CCN(c5ccc6c(c5)C(=O)N(C5CCC(=O)NC5=O)C6=O)CC4)CC3)cn2cc1NC(=O)c1cccc(C(F)(F)F)n1 (centres unmarked) [Example 8, N-(2-(1-((1-(2-(2,6-dioxopiperidin-3-yl)-1,3-dioxoisoindolin-5-yl)piperidin-4-yl)methyl)piperidin-4-yl)-7-methoxyimidazo[1,2-a]pyridin-6-yl)-6-(trifluoromethyl)pyridine-2-carboxamide]
Second: COc1cc2nc(C3CCN(CCN4CCN(c5ccc6c(c5)C(=O)N(C5CCC(=O)NC5=O)C6=O)CC4)CC3)cn2cc1NC(=O)c1cccc(C(F)(F)F)n1 (centres unmarked) [Example 11, N-(2-(1-(2-(4-(2-(2,6-dioxopiperidin-3-yl)-1,3-dioxoisoindolin-5-yl)piperazin-1-yl)ethyl)piperidin-4-yl)-7-methoxyimidazo[1,2-a]pyridin-6-yl)-6-(trifluoromethyl)pyridine-2-carboxamide]
The DC50 of the first is 7.3-fold higher: 16.3 nM for the first, 2.23 nM for the second.

`COc1cc2nc(C3CCN(CCN4CCN(c5ccc6c(c5)CN(C5CCC(=O)NC5=O)C6=O)CC4)CC3)cn2cc1NC(=O)c1cccc(C(F)(F)F)n1` (centres unmarked) [Example 12, N-(2-(1-(2-(4-(2-(2,6-dioxopiperidin-3-yl)-1-oxoisoindolin-5-yl)piperazin-1-yl)ethyl)piperidin-4-yl)-7-methoxyimidazo[1,2-a]pyridin-6-yl)-6-(trifluoromethyl)pyridine-2-carboxamide] and `COc1cc2nc(C3CCN(CCN4CCN(c5ccc6c(c5)C(=O)N(C5CCC(=O)NC5=O)C6)CC4)CC3)cn2cc1NC(=O)c1cccc(C(F)(F)F)n1` (centres unmarked) [Example 14, N-(2-(1-(2-(4-(2-(2,6-dioxopiperidin-3-yl)-3-oxoisoindolin-5-yl)piperazin-1-yl)ethyl)piperidin-4-yl)-7-methoxyimidazo[1,2-a]pyridin-6-yl)-6-(trifluoromethyl)pyridine-2-carboxamide] are within 1.5-fold of each other in DC50: 1.05 nM for the first, 1.33 nM for the second.

First: CC(C)(O)c1cc2nc(C3CCN(CCN4CCN(c5ccc6c(c5)C(=O)N(C5CCC(=O)NC5=O)C6)CC4)CC3)cn2cc1NC(=O)c1cccc(C(F)(F)F)n1 (centres unmarked) [Example 13, N-(2-(1-(2-(4-(2-(2,6-dioxopiperidin-3-yl)-3-oxoisoindolin-5-yl)piperazin-1-yl)ethyl)piperidin-4-yl)-7-(2-hydroxypropan-2-yl)imidazo[1,2-a]pyridin-6-yl)-6-(trifluoromethyl)pyridine-2-carboxamide]
Second: CC(C)(O)c1cc2nc(C3CCN(CCN4CCC5(CC4)CN(c4ccc6c(c4)C(=O)N(C4CCC(=O)NC4=O)C6=O)C5)CC3)cn2cc1NC(=O)c1cccc(C(F)(F)F)n1 (centres unmarked) [Example 16, N-(2-(1-(2-(2-(2-(2,6-dioxopiperidin-3-yl)-1,3-dioxoisoindolin-5-yl)-2,7-diazaspiro[3.5]nonan-7-yl)ethyl)piperidin-4-yl)-7-(2-hydroxypropan-2-yl)imidazo[1,2-a]pyridin-6-yl)-6-(trifluoromethyl)pyridine-2-carboxamide]
The DC50 of the first is 5.2-fold lower: 0.64 nM for the first, 3.33 nM for the second.

Work on `CC(C)(O)c1cc2nc(C3CCN(CCN4CC5(CCN(c6ccc7c(c6)C(=O)N(C6CCC(=O)NC6=O)C7=O)CC5)C4)CC3)cn2cc1NC(=O)c1cccc(C(F)(F)F)n1` (centres unmarked) [Example 17, N-(2-(1-(2-(7-(2-(2,6-dioxopiperidin-3-yl)-1,3-dioxoisoindolin-5-yl)-2,7-diazaspiro[3.5]nonan-2-yl)ethyl)piperidin-4-yl)-7-(2-hydroxypropan-2-yl)imidazo[1,2-a]pyridin-6-yl)-6-(trifluoromethyl)pyridine-2-carboxamide] yielded a DC50 of 4.86 nM.
